“And” between values parts separate entries of the source, which are not always exact repeats. Equal values may be shown once. Read-outs that look alike come from different tables or passages of the source.
Legend:
[1] = biological target: SARS-CoV-2 NSP3 macrodomain (Mac1), P43 crystal form (Severe acute respiratory syndrome coronavirus 2, UniProt P0DTD1); type: binding
[2] = biological target: SARS-CoV-2 NSP3 macrodomain (Mac1) (Severe acute respiratory syndrome coronavirus 2, UniProt P0DTD1); test: biochemical; type: binding
[3] = crystal soak 10 mM, TFA/DMSO background map
[4] = ligand modeling in Mac1 crystal soak
[5] = SARS CoV-2 macrodomain HTRF assay
[6] = SARS CoV-2 macrodomain HTRF assay, dose-response, read-out: IC50
[7] = SARS CoV-2 macrodomain HTRF assay, dose-response, read-out: Ki
[8] = Single dose, concentration 200 μM, read-out: SARS CoV-2 macrodomain HTRF assay: Average % competition
[9] = preliminary screen, compound at 200 μM, mean of 3-4 technical replicates, read-out: % competition in HTRF assay
[10] = ligand modeling in Mac1 crystal structure
[11] = stereoisomer(s) modeled in Mac1 crystal structure
[12] = dose-response, read-out: SARS CoV-2 macrodomain HTRF assay: IC50
[13] = dose-response, read-out: SARS CoV-2 macrodomain HTRF assay: Ki
[14] = from SARS CoV-2 macrodomain HTRF assay
[15] = crystal soak 10 mM, P43 crystals
[16] = crystal soak 10 mM, DMSO background map
[17] = stereoisomer(s) of ligand modeled in Mac1 crystal structure
[18] = Single dose, concentration 200 μM, read-out: Average % competition
[19] = soak concentration 10 mM, TFA/DMSO background map

Compound	Number of isomers bound [1, 4]	inhibition at 200 µM [2, 9]	Number of isomers bound [1, 10]	IC50 [2, 12]	Ki [2, 13]	Ligand efficiency (binding enery per heavy atom) [2, 14]	Isomers modeled [1, 17]	inhibition at 200 µM [2, 18]	also measured
Nc1ncnc2c1ncn2[C@@H]1O[C@H](COP(=O)(O)OP(=O)(O)OC[C@H]2O[C@@H](O)[C@H](O)[C@@H]2O)[C@@H](O)[C@H]1O.[Na].[Na] [ADP-ribose, reference compound]	–	–	–	–	–	–	–	–	X-ray crystal structure ([1]; crystal structure with Mac1 determined (TRUE)): TRUE; Hill slope ([2]; HTRF dose-response fit, Mac1): 1.1
OCC(Nc1ncnc2[nH]ccc12)C1CC1 (stereo not drawn) [AVI-3651]	1	–	–	–	–	–	–	–	PanDDA run, TFA/DMSO background map: 1-BDC [1, 3]: 0.16; PanDDA run, TFA/DMSO background map: Hit [1, 3]: TRUE; Ligand efficiency (binding enery per heavy atom) [2, 5]: 0.38; IC50 [2, 6]: 48 µM; Ki [2, 7]: 45 µM
OC[C@@H]1C[C@H](F)CN1c1ncnc2[nH]ccc12 [AVI-609]	1	52%	–	–	–	–	–	–	inhibition at 200 µM [2, 8]: 52%
OC1(CNc2ncnc3[nH]ccc23)CCOCC1 [AVI-4314]	–	–	1	230 µM	210 µM	0.28	–	–	Isomers modeled [1, 11]: achiral
OC[C@H]1CN2CCC[C@H]2CN1c1ncnc2[nH]ccc12 [AVI-3724]	–	< 10%	–	–	–	–	–	–	Pandda run, overall: Hit [1, 15]: TRUE; Pandda run, overall: Modeling comment [1, 15]: Weak density, not modeled; PanDDA run, DMSO background map: 1-BDC [1, 16]: 0.05; PanDDA run, DMSO background map: Hit [1, 16]: TRUE; inhibition at 200 µM [2, 8]: < 10%
Cc1ccc(CC(CO)Nc2ncnc3[nH]ccc23)cc1 (stereo not drawn) [AVI-3683]	2	14%	–	–	–	–	S,R	14%	–
Cc1c[nH]c2ncnc(NCC3(O)CCC(C)CC3)c12 (stereo not drawn) [AVI-4331]	–	–	1	210 µM	–	0.26	–	–	Isomers modeled [1, 11]: rr
CC1(C)C[C@@H](CO)N(c2ncnc3[nH]ccc23)C1.O=C(O)C(F)(F)F [AVI-3704]	1	–	–	29 µM	27 µM	0.35	–	–	–
OCC(CC(F)(F)F)Nc1ncnc2[nH]ccc12 (stereo not drawn) [AVI-3637]	1	50%	–	–	–	–	–	50%	PanDDA run, TFA/DMSO background map: 1-BDC [1, 19]: 0.21; PanDDA run, TFA/DMSO background map: Hit [1, 19]: TRUE
Cc1c[nH]c2ncnc(NCC3(O)CCOCC3)c12 [AVI-4194, 4-(((5-methyl-7H-pyrrolo[2,3-d]pyrimidin-4-yl)amino)methyl)tetrahydro-2H-pyran-4-ol]	–	–	1	160 µM	150 µM	0.28	–	–	Isomers modeled [1, 11]: achiral
OCC(COCc1ccccc1)Nc1ncnc2[nH]ccc12 (stereo not drawn) [AVI-3709]	2	29%	–	–	–	–	S,R	29%	PanDDA run, TFA/DMSO background map: 1-BDC [1, 19]: 0.16; PanDDA run, TFA/DMSO background map: Hit [1, 19]: TRUE
O=C(O)C(F)(F)F.OCC1(Nc2ncnc3[nH]ccc23)CC1 [AVI-3688]	1	72%	–	–	–	–	achiral	72%	PanDDA run, TFA/DMSO background map: 1-BDC [1, 3]: 0.17; PanDDA run, TFA/DMSO background map: Hit [1, 3]: TRUE
OCC(Cc1ccccn1)Nc1ncnc2[nH]ccc12 (stereo not drawn) [AVI-3696]	2	34%	–	–	–	–	R,S	34%	–
CN(C)CC(CO)Nc1ncnc2[nH]ccc12 (stereo not drawn) [AVI-3671]	1	< 10%	–	–	–	–	–	< 10%	PanDDA run, TFA/DMSO background map: 1-BDC [1, 3]: 0.13; PanDDA run, TFA/DMSO background map: Hit [1, 3]: TRUE
OCC(CC1CCC1)Nc1ncnc2[nH]ccc12 (stereo not drawn) [AVI-3641]	1	32%	–	–	–	–	–	32%	PanDDA run, TFA/DMSO background map: 1-BDC [1, 3]: 0.11; PanDDA run, TFA/DMSO background map: Hit [1, 3]: TRUE
O=C(O)C(F)(F)F.OC1([C@H]2CCCN2c2ncnc3[nH]ccc23)Cc2ccccc2C1 [AVI-3731]	1	–	–	–	3.4 µM	0.31	–	–	PanDDA run, TFA/DMSO background map: 1-BDC [1, 19]: 0.14; PanDDA run, TFA/DMSO background map: Hit [1, 19]: TRUE; fold more potent compared to open state binders reported previously ([2]; open state of Phe132 loop): 10–50 fold; IC50 ([2]; read-out: HTRF IC50): 3.7 µM
O=C(O)C(F)(F)F.OCC1(Nc2ncnc3[nH]ccc23)CCC1 [AVI-3670]	1	–	–	–	–	–	achiral,achiral	–	PanDDA run, TFA/DMSO background map: 1-BDC [1, 3]: 0.12; PanDDA run, TFA/DMSO background map: Hit [1, 3]: TRUE; Ligand efficiency (binding enery per heavy atom) [2, 5]: 0.38; IC50 [2, 6]: 39 µM; Ki [2, 7]: 36 µM
OCC(Cc1c[nH]c2ccccc12)Nc1ncnc2[nH]ccc12 (stereo not drawn) [AVI-3650]	2	71%	–	–	–	–	R,S	71%	PanDDA run, TFA/DMSO background map: 1-BDC [1, 3]: 0.11; PanDDA run, TFA/DMSO background map: Hit [1, 3]: TRUE
CC(O)C1CCCN1c1ncnc2[nH]ccc12 (stereo not drawn) [AVI-4062]	–	–	1	–	51 µM	0.35	–	–	fold decrease in affinity compared to AVI-607 ([2]; HTRF): ~ 3 fold; IC50 ([2]; read-out: HTRF IC50): 55 µM
OC1CCN(c2ncnc3[nH]ccc23)C1 (stereo not drawn) [AVI-3661]	–	11%	1	–	–	–	–	–	PanDDA run, TFA/DMSO background map: 1-BDC [1, 3]: 0.12; PanDDA run, TFA/DMSO background map: Hit [1, 3]: TRUE; inhibition at 200 µM [2, 8]: 11%
C[C@H]1CC[C@H](CO)N(c2ncnc3[nH]ccc23)C1 (racemic) [AVI-4063]	–	–	1	56 µM	52 µM	0.33	–	–	–
CC1(C)CCC(CO)N(c2ncnc3[nH]ccc23)C1 (stereo not drawn) [AVI-3726]	2	76%	–	–	–	–	R,R,S	–	inhibition at 200 µM [2, 8]: 76%
OC1(CNc2ncnc3[nH]ccc23)CCC(F)(F)CC1 [AVI-4308]	–	–	1	140 µM	130 µM	0.27	–	–	Isomers modeled [1, 11]: achiral
OC[C@@H]1C[C@@H]2CCC[C@@H]2N1c1ncnc2[nH]ccc12 [AVI-3720]	1	–	–	28 µM	26 µM	0.33	SSS	–	–
OC1(CNc2ncnc3[nH]ccc23)COC2CC1C2 (stereo not drawn) [AVI-4313]	–	–	1	130 µM	120 µM	0.29	–	–	–
CC(O)C(C)Nc1ncnc2[nH]ccc12 (stereo not drawn) [AVI-5158]	–	32%	2	–	–	–	–	32%	Isomers modeled [1, 11]: RS,RR
O=C(O)C(F)(F)F.OC[C@H](Cc1ccc(O)cc1)Nc1ncnc2[nH]ccc12 [AVI-4066]	–	–	1	–	–	–	–	–	Hit (PanDDA run, TFA/DMSO background map) [1, 3]: TRUE; 1-BDC (PanDDA run, TFA/DMSO background map) ([1]; crystal soak 10 mM, TFA/DMSO background map, event 1): 0.19 and 0.29 and 0.3; Ligand efficiency (binding enery per heavy atom) [2, 5]: 0.21; IC50 [2, 6]: 720 µM; Ki [2, 7]: 670 µM
CN(CC1(O)CCOCC1)c1ncnc2[nH]ccc12 [AVI-4318]	–	–	1	71 µM	66 µM	0.30	–	–	Isomers modeled [1, 11]: achiral
O[C@H]1CC[C@@H]2CCN(c3ncnc4[nH]ccc34)[C@@H]21 [AVI-3664]	1	–	–	28 µM	26 µM	0.35	SRS	–	PanDDA run, TFA/DMSO background map: 1-BDC [1, 3]: 0.15; PanDDA run, TFA/DMSO background map: Hit [1, 3]: TRUE

Source: publication doi:10.1101/2024.08.25.609621 (bioRxiv, 2024)
